For series [1], the system named is 16-hour salivary biofilm on pellicle coated hydroxyapatite pegs. Nature of the series: Prevention assay: prevention of bacterial attachment to pellicle coated hydroxyapatite pegs, ATP bioluminescence. It is filed as cell-based. As to the method:
The formulations in Examples 2-4, 6, 8 and 9 were prepared and test for prevention of bacterial attachment using the prevention assay. In this assay hydroxyapatite-coated polystyrene peg plate (96 pegs, N=8 per group) was exposed to saliva for one minute to form a pellicle at a temperature of 35 C. Then, for each formulation, eight pegs (N=8) were pre-treated for ten minutes with the formulation using an orbital shaker set to 500 RPM at room temperature. As a negative control, eight pegs (N=8) were pre-treated for ten minutes with sterile water. Next, a 16-hour salivary biofilm was grown on these polystyrene peg plates at a temperature of 35 C.
After all treatments were complete, the biofilm from each peg was neutralized and rinsed. The biofilm was harvested via sonication using a Q-Sonica Q700 Ultrasonic Liquid Processor with 431MP4-00 microplate horn Damper and 0.5:1 reverse gain booster (Q-Sonica, Newtown, Conn.). Using a Celsis Rapid Detection RapiScreen kit (Celsis International PLC, Chicago, Ill.), the bacteria were lysed with Celsis Luminex and then the adenosine triphosphate (ATP) from the lysed bacteria was measured using the bioluminescence marker Celcis Luminate and a Centro LB 960 Microplate Luminometer supplied by Berthold Technologies (Wildbad, Germany). Data were reported in log RLU (relative light units) where decreasing log RLUs indicated fewer viable bacteria remained on the biofilm substrate. The log RLUs for the prevention assay are shown on Tables 2, 4, 6, 10, 14, and 16.

For another series, the system named is S. mutans biofilm. Put plainly: S. mutans single species kill assay (in-vitro biofilm model). It is filed as cell-based. The conditions noted are these: simple solution formulas (Table 13), 30 second treatment. As to the method: The formulations listed in Example 7 were prepared and tested using an in-vitro single species S. mutans biofilm model. A 24-hour S. mutans biofilm is grown on a polystyrene peg plate (96 pegs, N=6 per test group). The pegs were subsequently treated for thirty seconds with each of formulations H and I, as well as positive and negative controls. The treatment is applied as a single thirty (30) second treatment. The positive control is a commercially available essential oil mouth rinse. The negative control is sterile water. After treatment the biofilm is neutralized and rinsed. The biofilm is harvested via sonication using a Misonix Ultrasonic Liquid Processor (Farmingdale, N.Y.). Using a Celsis Rapid Detection RapiScreen kit (Celsis International PLC, Chicago), the bacteria are lysed with Celsis Luminex and then the adenosine triphosphate (ATP) from the lysed bacteria is measured using the bioluminescence marker LB960 Microplate Luminometer supplied by Berthold (Wildbad, Germany). Data are reported in log RLU (relative light units) where decreasing log RLUs indicates fewer viable bacteria remaining on the biofilm substrate.

The nature of series [2]: HPLC quantification of compound remaining after storage at 50° C. The conditions noted are these: HPLC. The series is classed as physicochemical. As to the method:
Briefly, formulations containing either LAE or any of the 26 compounds and standards are diluted into a solution of 50% acetonitrile and 50% water. They are evaluated on an Agilent HPLC using a Zorbax ion exchange column. In the method, 10 uL of the sample is withdrawn and ran through the HPLC with a 40% potassium phosphate (molarity at pH 3.0) 60% acetonitrile mobile phase. […] The molecule peak is auto integrated using the Online Agilent HPLC software. Comparisons are made to the standard to identify the % of compound remaining following storage.

The mark [3] stands for this setting: simple solution solvent base formulas (Table 11).

With `CCCCCCCCCCCC(=O)NC(CCCNC(=N)N)C(=O)NCC` (centres unmarked) [Compound 9, [amino({[4-dodecanamido-4-(ethylcarbamoyl)butyl]amino})methylidene]azanium], in series [1] (0.15 wt % compound 9, Table 6), the “effect of presence of essential oils (EOs) on prevention of bacterial attachment” value is given as “has no effect” and the “effect of surfactant on prevention of bacterial attachment” value is “has a major effect”. Besides, in series [1] (0.15 wt % in alcohol free base, compositions K-R), the “prevention of bacterial attachment in full formula” value is on record as “Prevents Bacterial Attachment in Full Formula”. The “efficacy at preventing bacterial attachment” value in series [1] (0.15 wt % in water) was “demonstrated efficacy at preventing bacterial attachment”. Moreover, the “prevention of bacterial attachment compared with LAE” value in series [1] (0.15 wt %, 21.6% alcohol and water-based solution) was “equally as efficacious as LAE”. Moreover, the “prevention of bacterial attachment in alcohol free full formulations” value in series [1] (Table 15 formulations, water as the only solvent) is “Prevent Bacterial Attachment”. The “prevention of bacterial attachment in alcohol-free full formulations” value in series [1] (Table 17 formulations, water and propylene glycol as solvents) is “Prevent Bacterial Attachment”. The “most effective concentration for prevention of bacterial attachment” value in series [1] (compound 9 in simple water solution (Table 1 compositions)) is recorded as 0.3 wt %. In series [1] (compound 9 in water, 0.01-0.4 w/w %), the “concentration effect on prevention of bacterial attachment” value was “dose dependent response”. In series [1] (setting [3]), the “ability to prevent bacterial attachment” value is reported as “have the ability to prevent bacterial attachment” and the “preventing bacterial attachment the best” value was “preventing bacterial attachment the best”. For the same molecule, in the series with S. mutans biofilm, the “log reduction in S. mutans” value is recorded as “do not Result in More than a One Log Reduction in S. mutans”. Moreover, the “% of molecule maintained out to 8 weeks when stored at 50° C.” value in series [2] (8 weeks, 50° C., formulations of Table 7) was “at least 90%”. Besides, the “stability in an alcohol-free formulation” value in series [2] (storage at 50° C.) is on record as “Maintains Stability”.

The values above are taken from patent publication US11820729B2 (Johnson & Johnson Consumer Inc., priority 2014, dated 2023).
